Measurements: ChEMBL document CHEMBL1149521, “Synthesis of novel keto-ACE analogues as domain-selective angiotensin I-converting enzyme inhibitors” (Bioorg Med Chem Lett, 2006)

Tests used:
[1] = target: T1, Angiotensin-converting enzyme (Oryctolagus cuniculus, UniProt P12822); experiment: Inhibition of rabbit testis recombinant ACE C domain
T1 sequence (P12822 whole entry): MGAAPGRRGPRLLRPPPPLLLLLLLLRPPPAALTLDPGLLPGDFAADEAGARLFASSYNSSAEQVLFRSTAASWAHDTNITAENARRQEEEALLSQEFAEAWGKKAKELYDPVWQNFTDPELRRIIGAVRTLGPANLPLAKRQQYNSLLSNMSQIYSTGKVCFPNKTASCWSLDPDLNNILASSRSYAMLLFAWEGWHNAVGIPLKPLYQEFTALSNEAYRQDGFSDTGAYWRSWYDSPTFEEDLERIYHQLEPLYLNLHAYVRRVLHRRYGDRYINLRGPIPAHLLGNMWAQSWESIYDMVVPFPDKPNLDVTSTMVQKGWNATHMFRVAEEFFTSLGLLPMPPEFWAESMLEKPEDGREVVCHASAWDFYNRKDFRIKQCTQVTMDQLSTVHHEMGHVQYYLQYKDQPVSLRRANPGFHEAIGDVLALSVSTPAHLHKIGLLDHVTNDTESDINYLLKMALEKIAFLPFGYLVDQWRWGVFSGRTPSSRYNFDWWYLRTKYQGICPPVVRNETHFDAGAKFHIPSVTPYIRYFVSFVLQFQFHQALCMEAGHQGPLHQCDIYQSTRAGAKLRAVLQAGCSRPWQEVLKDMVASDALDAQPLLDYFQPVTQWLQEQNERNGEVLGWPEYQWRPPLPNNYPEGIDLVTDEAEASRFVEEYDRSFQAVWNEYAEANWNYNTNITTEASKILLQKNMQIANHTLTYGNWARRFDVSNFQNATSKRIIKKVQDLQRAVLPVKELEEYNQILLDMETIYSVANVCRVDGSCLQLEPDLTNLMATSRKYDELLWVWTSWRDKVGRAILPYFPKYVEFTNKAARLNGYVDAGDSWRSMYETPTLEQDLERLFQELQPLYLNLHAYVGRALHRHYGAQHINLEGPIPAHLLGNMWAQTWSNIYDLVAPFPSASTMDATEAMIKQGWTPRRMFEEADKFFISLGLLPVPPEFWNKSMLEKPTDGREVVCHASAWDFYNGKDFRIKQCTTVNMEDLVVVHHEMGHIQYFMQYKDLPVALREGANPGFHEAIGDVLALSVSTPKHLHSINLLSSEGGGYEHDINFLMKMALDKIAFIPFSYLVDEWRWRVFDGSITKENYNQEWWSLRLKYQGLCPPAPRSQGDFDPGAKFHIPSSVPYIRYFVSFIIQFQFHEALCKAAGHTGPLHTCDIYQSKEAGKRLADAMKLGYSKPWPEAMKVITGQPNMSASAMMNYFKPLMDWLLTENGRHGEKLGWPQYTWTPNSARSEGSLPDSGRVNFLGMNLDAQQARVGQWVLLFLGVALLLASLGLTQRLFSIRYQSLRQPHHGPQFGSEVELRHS

[2] = Selectivity for rabbit testis ACE C domain over human ACE N domain
[3] = target: Angiotensin-converting enzyme (Homo sapiens, UniProt P12821); experiment: Inhibition of recombinant ACE N domain
Sequence of Angiotensin-converting enzyme (Homo sapiens, UniProt P12821) (P12821 whole entry): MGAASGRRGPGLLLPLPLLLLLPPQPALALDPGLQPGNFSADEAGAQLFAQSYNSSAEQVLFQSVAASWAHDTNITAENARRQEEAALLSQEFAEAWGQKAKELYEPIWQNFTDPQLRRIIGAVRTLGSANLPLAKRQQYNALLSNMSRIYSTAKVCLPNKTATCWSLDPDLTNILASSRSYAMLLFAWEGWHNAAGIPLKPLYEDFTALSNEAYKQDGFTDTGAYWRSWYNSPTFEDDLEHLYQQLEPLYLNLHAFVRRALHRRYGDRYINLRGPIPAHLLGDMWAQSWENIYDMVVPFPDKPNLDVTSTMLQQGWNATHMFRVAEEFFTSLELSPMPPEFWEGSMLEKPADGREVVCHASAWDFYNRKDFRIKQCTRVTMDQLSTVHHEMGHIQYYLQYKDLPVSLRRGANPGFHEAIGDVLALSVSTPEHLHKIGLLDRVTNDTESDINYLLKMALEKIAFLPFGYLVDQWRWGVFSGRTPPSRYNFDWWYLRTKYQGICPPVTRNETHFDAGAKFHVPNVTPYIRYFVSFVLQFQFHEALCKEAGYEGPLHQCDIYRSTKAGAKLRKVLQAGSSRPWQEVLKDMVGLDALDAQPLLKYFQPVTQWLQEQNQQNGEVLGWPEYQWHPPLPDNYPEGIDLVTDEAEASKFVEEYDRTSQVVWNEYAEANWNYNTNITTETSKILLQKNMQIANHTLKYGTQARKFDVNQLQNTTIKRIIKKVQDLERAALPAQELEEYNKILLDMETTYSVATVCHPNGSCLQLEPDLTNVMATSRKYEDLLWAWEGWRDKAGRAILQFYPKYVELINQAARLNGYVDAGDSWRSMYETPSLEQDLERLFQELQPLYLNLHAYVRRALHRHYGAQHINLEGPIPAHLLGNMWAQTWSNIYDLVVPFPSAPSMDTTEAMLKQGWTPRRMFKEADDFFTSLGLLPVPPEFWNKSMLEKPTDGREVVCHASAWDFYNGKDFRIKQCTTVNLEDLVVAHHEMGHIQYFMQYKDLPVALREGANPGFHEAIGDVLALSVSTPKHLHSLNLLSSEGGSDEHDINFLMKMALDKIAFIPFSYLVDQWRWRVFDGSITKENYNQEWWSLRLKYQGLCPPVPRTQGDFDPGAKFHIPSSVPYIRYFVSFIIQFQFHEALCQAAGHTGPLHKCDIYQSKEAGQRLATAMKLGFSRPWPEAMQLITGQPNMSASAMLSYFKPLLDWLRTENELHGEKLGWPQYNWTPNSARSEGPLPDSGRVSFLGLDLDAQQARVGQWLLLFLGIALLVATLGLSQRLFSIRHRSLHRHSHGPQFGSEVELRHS

| Structure (SMILES) | Ki [1] [µM] | Ratio Ki [2] | Ki [3] [µM] |
| --- | --- | --- | --- |
| CC(C)(C)OC(=O)N[C@@H](Cc1ccccc1)C(=O)CCC(=O)N[C@@H](Cc1c[nH]c2ccccc12)C(=O)O | 381 | 0.04 | 13.3 |
| NCCCC[C@H](N[C@@H](CCc1ccccc1)C(=O)O)C(=O)N1CCC[C@H]1C(=O)O [LISINOPRIL ANHYDROUS] | 0.051 |  |  |
| CC(C)(C)OC(=O)N[C@@H](Cc1ccccc1)C(=O)CCC(=O)N[C@@H](Cc1ccccc1)C(=O)O | 313 | 0.1 | 43 |
| CC(C)(C)OC(=O)N[C@@H](Cc1ccccc1)C(=O)CCC(=O)N1CCC[C@H]1C(=O)O | 144 | 0.2 |  |

Second part, the compound after the results:

| Ki [1] [µM] | Ratio Ki [2] | Ki [3] [µM] | Structure (SMILES) |
| --- | --- | --- | --- |
| 23.7 | 3.6 |  | O=C(CCC(=O)[C@H](Cc1ccccc1)NC(=O)c1ccccc1)N[C@@H](Cc1ccccc1)C(=O)O |
| 0.8 | 245 |  | O=C(CCC(=O)[C@H](Cc1ccccc1)NC(=O)c1ccccc1)N[C@@H](Cc1c[nH]c2ccccc12)C(=O)O |
